Data as given in publication PMC6594423, “Cobimetinib and trametinib inhibit platelet MEK but do not cause platelet dysfunction” (Platelets, 2018).

System: T1, MEK1 (platelet MEK; MEK1/2 not resolved)
T1 construct: gene MAP2K1
Assay: western blot of ERK1/[…] phosphorylation (MEK substrate) in CRP- or TRAP-6-stimulated washed human platelets
Format: cell-based

log10 IC50 (M) | Compound | IC50
 | CC(=O)Nc1cccc(-n2c(=O)n(C3CC3)c(=O)c3c(Nc4ccc(I)cc4F)n(C)c(=O)c(C)c32)c1 [Trametinib] | −10.9 ± 0.43 (logIC50) log M
-9.5 | O=C(c1ccc(F)c(F)c1Nc1ccc(I)cc1F)N1CC(O)([C@@H]2CCCCN2)C1 [Cobimetinib] | 
